Where “and” joins values, the source holds several entries; their conditions need not be identical. Identical values can stand only once.
System: Dermanyssus gallinae
Experiment: Comparative in vitro effect on Dermanyssus gallinae
Settings: for Type of activity: at the EC100 of the same table line; for EC100 (minimum dosage to reach 100% mortality): fed adult female mites, evaluated after 5 days
Experimental: 15 fed adult female mites of the genus Dermanyssus gallinae fixed on a plastic adhesive film are brought into contact with 50 μl of an aqueous suspension or emulsion of the test substance. The test is carried out with concentrations of 32, 10, 3.2, 1.0, 0.32 to 0.1 ppm. After drying, the film is stuck onto a glass disc. This creates a kind of air bubble around each mite, the lower surface of which is formed by the glass disc and the upper surface by a bulging of the adhesive film. This bubble contains sufficient air for the mite to avoid suffocating. After 5 days, the effect of the test substance is evaluated with the aid of a stereo-microscope by assessing the effect on mortality, egg deposition, egg quality, hatching rate, pupation rate, and development of protonymphs according to the following 4 criteria:
1. if 9 to 10 mites are dead, this indicates a lethal effect (M);
3. if 2 or more mites survive and produce eggs, but no larvae hatch from these eggs and no protonymphs develop, this indicates a development-inhibiting effect (H);
4. if 2 or more mites survive and lay the usual number of normal eggs, from which larvae hatch and develop into protonymphs, this indicates no activity.

Row | SMILES | concentration that completely inhibits the development of protonymphs (after 5 days) [ppm] | type of effect (points 1-4) (after 5 days) | Type of activity | EC100 (minimum dosage to reach 100% mortality) [ppm] | concentration to reach an activity of type 1 (activity of type 1) | concentration to reach a considerable efficacy (only activity of type 3) (activity of type 3) | Type of activity (listed as Enantiomer B) | type of effect (points 1-4) at concentrations up to 10 ppm (concentrations up to 10 ppm) | EC100 (minimum dosage to reach 100% mortality) (listed as Enantiomer B)
1 | Fc1cccc(F)c1C1=NC(c2ccc(-c3ccc(C(F)(F)F)cc3)cc2)CO1 (racemic) [Racemate, 2-(2,6-difluorophenyl)-4-(4′-trifluoromethylbiphenyl-4-yl)-4,5-dihydrooxazole, reference compound] | ≥ 0.02 | 1 | 1 | 0.2 | – | – | – | – | –
2 | Fc1cccc(F)c1C1=NC(c2ccc(-c3ccc(C(F)(F)F)cc3)cc2)CO1 (single isomer, unassigned) [1.2, 2-(2,6-difluoro-phenyl)-4-(4′-trifluoromethylbiphenyl-4-yl)-4,5-dihydro-oxazole] | – | – | – | – | at least 32 ppm | at least 20 ppm | 3) and 1 | 4 | 20.0 ppm and 32.0 ppm
